This is an account of results in US20240317762A1, “PHTHALAZINONE-BASED PARP-1 INHIBITORS” (Oregon Health & Science University, priority 2021, published 2024).

The EC50 is the concentration at which the effect is half-maximal. Higher therefore signals a need for much substance. The term IC50 denotes the concentration that gives 50% inhibition.

Several values for one entry are separate records, joined by “and”; a condition that tells them apart may be missing. Identical values can stand only once.

Experiment [1] deals with Ewing sarcoma cell line EW-8. Description: ES-8 viability screen (CellTiter-Glo). Type of experiment: cell-based. The protocol: Cell viability was measured using the CellTiter-Glo (Promega, G7573) assay and read using an Envision (PerkinElmer) plate reader. Compound source plates (96-well) were prepared by solubilizing each drug in DMSO to a maximum concentration of 1-50 mM, then arraying samples in 10-point dose-response with 3-fold dilution. Positive and negative controls (staurosporine at 10 mM and DMSO, respectively) were added to the source plates. Drug was transferred from the source plate to the assay plate using a Biomek FX (Beckman Coulter) liquid handler equipped with a pin tool which transferred ˜100 nl into a final volume of 100 μl, resulting in ˜1000-fold dilution. At least two biological replicates (assay performed on different day with same drug plate and independent cell preparation) were obtained for each drug. To analyze the assay, the relative light unit signal in each well was first log 2 transformed, then normalized by subtracting the mean of the negative controls wells on each plate.
FIGS. 6A-6E. […] 0.1 μM ad-olaparib (chemical structure indicated in panel a) was added to the cells for 1 hour before undergoing a UV treatment for 5 minutes in cold PBS. Cells were lysed and sonicated in PBS (1% Triton X-100+1% SDS), clicked with TAMRA-azide and run out on SDS-PAGE. The gel was imaged for TAMRA and probed for PARP-1 (Bethyl Laboratories), and alpha-tubulin (X). FIGS. 6B, 6D) Quantification of western blot images. TAMRA or ADPr values are normalized to PARP-1 within each replicate and plotted as percentage compared to DMSO. Error bars indicate SEM (n=3-4). Statistical significance of off-rate calculated via multiple t-tests (p<0.05). […] Cells were subsequently treated with PARGi (10 μM) for 30 minutes, lysed using RIPA buffer, run out on SDS-PAGE, and probed for ADPr (Cell Signaling) and PARP-1 (Bethyl Laboratories). FIG. 6E) ES-8 cells were treated with indicated concentration of inhibitors for 72 hours before measuring cell viability using the CellTiter-Glo kit (Promega G7573). IC50 values were calculated using R statistical software.

Experiment [2] has as its system pan-nuclear γH2AX in HEK 293T cells. Description: γH2AX immunofluorescence. Type of experiment: cell-based, human. The protocol:
HEK 293T or HEK 293 PARP-1 KO cells were seeded onto poly-d-lysine treated glass coverslips and treated with indicated concentrations of inhibitors for 18 hours. Cells were then washed with 1×PBS and fixed using 4% Sucrose/4% Paraformaldehyde in PBS for 20 minutes. After three washes in 1×PBS, cells were permeabilized in 0.3% Triton X-100 in PBS for 5 minutes followed by an additional three washes in 1×PBS. Coverslips were blocked in 3% BSA/0.1% Triton X-100 in PBS for 1 hour and then placed in primary anti-rabbit phosphoH2Ax antibody (1:200, Cell Signaling) overnight at 4° C. The next morning, cells were washed three times in 1×PBS and treated with blocking solution, 3% BSA/0.1% Triton X-100 in PBS, for 30 minutes before being placed in secondary anti-rabbit Alexa Fluor 647 (1:1000 Jackson Immuno) for 1 hour at RT. After three subsequent 1×PBS washes, coverslips were mounted using ProLong Gold antifade reagent with DAPI (Invitrogen). All immunofluorescence images were taken on a Zeiss ApoTome2 on Axiolmager and analyzed using Zeiss software. Mean intensity of the Alexa Fluor 647 signal was measured after imposing DAPI masks over the nucleus of each cell. All cells within a 20× image, was analyzed (˜3000 cells/condition).
Cell are stained for DAPI and γH2AX. Scale bar indicates 50 μm. FIG. 2B) Quantification of panel a. […] Error bars represent SEM. […] Error bars represent SEM. […] Error bars represent SEM.

Experiment [3] has as its system HEK 293T cells. Nature of the experiment: neutral comet assay. Type of experiment: cell-based, human. The following applies: 1 μM overnight, compared to bleomycin. An excerpt: Cells were washed with 1×PBS, trypsinized, resuspended in a 1000,000 cells/ml 1×PBS solution, and mixed with molten agarose 1:2. The agarose mixture was placed onto CometSlides and the comet assay was completed following the manufacturer instructions (Trevigen, 4250-050-K). DNA was stained using SYBR Green and slides were imaged on a Zeiss ApoTome2 on Axiolmager using a 10× objective (>100 cells/condition).

The test system of experiment [4] is Ser345 phosphorylation of Chk1 in HEK 293 cells. Nature of the experiment: western blot analysis of phosphorylation of Chk1. The note with it: HEK 293 cells, 18 hours. On the technique in general: In western blotting, separated proteins are transferred to a membrane and probed.
Experiment [5] deals with T1, PARP-1 (Homo sapiens, UniProt P09874). Nature of the experiment: fluorescence polarization DNA binding affinity assay. The following applies: 5 μM inhibitor.
T1 sequence (P09874 whole entry, the tested form may be a part): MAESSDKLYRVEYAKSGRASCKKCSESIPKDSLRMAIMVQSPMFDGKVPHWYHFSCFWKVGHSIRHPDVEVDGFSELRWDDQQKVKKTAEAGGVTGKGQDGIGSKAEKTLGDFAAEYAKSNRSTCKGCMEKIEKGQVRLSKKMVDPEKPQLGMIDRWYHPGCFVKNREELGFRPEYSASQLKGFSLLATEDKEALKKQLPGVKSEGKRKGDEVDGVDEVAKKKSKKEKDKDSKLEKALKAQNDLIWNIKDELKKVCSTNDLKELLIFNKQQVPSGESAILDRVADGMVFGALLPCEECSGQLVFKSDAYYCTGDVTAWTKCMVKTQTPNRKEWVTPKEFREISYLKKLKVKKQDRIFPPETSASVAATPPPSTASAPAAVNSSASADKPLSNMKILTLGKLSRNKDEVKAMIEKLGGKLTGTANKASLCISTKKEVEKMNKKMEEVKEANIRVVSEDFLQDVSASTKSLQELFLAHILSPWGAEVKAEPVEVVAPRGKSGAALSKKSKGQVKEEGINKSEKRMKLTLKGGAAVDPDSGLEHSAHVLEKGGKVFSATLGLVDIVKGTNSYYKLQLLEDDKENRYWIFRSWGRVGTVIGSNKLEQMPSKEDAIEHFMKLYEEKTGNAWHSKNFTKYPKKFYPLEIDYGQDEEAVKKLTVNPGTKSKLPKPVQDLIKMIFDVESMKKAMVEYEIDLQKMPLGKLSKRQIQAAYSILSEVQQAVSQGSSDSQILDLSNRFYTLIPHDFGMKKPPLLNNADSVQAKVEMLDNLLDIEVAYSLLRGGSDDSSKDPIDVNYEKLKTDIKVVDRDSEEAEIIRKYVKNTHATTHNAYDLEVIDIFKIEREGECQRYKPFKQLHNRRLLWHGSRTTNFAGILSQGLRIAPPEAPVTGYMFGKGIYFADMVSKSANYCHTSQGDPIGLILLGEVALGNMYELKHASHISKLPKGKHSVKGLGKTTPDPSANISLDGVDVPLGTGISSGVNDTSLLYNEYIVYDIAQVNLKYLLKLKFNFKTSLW
Text: The full-length WT PARP-1 protein used in these assays was purified as described previously (30).
Experiment [6] addresses R878A PARP-1 (Homo sapiens, UniProt P09874, R878A). Nature of the experiment: fluorescence polarization DNA competition and affinity assays, R878A mutant. Type of experiment: binding. The note with it: with AZ0108. The protocol: FIG. 4B) Helical domain (pink cartoon) movement observed during the simulation, the red arrows indicate length and direction of movement. FIG. 4C) The residue-residue distance observed between the Ca atoms R878-D770 and Y889-V758, the increased distance sampling corresponds to the helical domain movement. FIG. 4D) PARP-1 WT, D770A, or R878A (40 nM) was incubated with a dumbbell DNA probe carrying an internal FAM group and a central nick at 20 nM with or without compound (25 μM) for 30 minutes. An unlabeled competitor was added and the decrease in fluorescence polarization was measured across time. FIG. 4E) The Kd of PARP-1 WT, D770A, or R878A for a DNA dumbbell probe containing a central nick (5 nM) was measured in a fluorescence polarization assay with and without inhibitor (5 μM). Error bars represent Standard Error of the Mean (SEM) (n=3).

Experiment [7] has as its target T1, PARP-1. Description: in vitro PARP-1 auto-PARylation assay (SRPK2 plate assay). Type of experiment: biochemical. More on the design: The full-length WT PARP-1 protein used in these assays; made in house. The note with it: read-out: IC50 against PARP-1 catalytic activity (auto-PARylation). As to the method: IC50 SRPK2 Plate Assays were performed as previously described (21). Log(inhibitor) versus response curves were fit using non-linear regression with variable slope. Mean IC50 values for each compound were derived from a minimum of three separate replicates.

Chain of R878A PARP-1 (P09874 whole entry R878A, the tested form may be a part): as the sequence (P09874 whole entry, the tested form may be a part) above, with R878A counted along it

Turning to “(S)-4-(difluoro(3-(6-methyl-3-(trifluoromethyl)-5,6,7,8-tetrahydro-[1,2,4]triazolo[4,3-a]pyrazine-7-carbonyl)phenyl)methyl)phthalazin-1(2H)-one [AZ0108]”, in experiment [1] (ratio of EC50 values), the “Fold Difference to Pip6” value came out at 86. The EC50 in experiment [1] (viability, 72 h) was 20 nM and 20.9 nM. Besides, in experiment [2] (HEK 293T cells, 18 hours), the “pan-nuclear γH2AX induction” value is “dose-dependent increase”. The “dependence of pan-nuclear γH2AX signal on PARP-1” value in experiment [2] (HEK293 control vs PARP-1 KO cells, 3 μM AZ0108) was “dependent on the presence of PARP-1”. In experiment [3], the “double-strand breaks (DSBs)” value is “only weakly generated DSBs”. Besides, in experiment [4], the “Ser345 phosphorylation of Chk1” value is “induced Ser345 phosphorylation of Chk1”. The “increase of the affinity of PARP-1 for DNA” value in experiment [5] (DNA dumbbell probe with central nick 5 nM) is 4 fold. Besides, in experiment [5] (compared to DMSO control), the “effect on the affinity of PARP-1 for nicked DNA” value was “more pronounced effect on DNA binding to PARP-1”. In addition, the “DNA binding to R878A PARP-1” value in experiment [6] is listed as “similarly unaffected”. The IC50 in experiment [7] was determined as 12 nM.
